Laboratory results taken from ChEMBL document CHEMBL5329155, “Synthesis and pharmacological evaluation of 1,3-diaryl substituted pyrazole based (thio)urea derivatives as potent antimicrobial agents against multi-drug resistant Staphylococcus aureus and Mycobacterium tuberculosis” (RSC Med Chem, 2023).
≈ marks a conversion by molar mass, not a printed value.

Experiments:
Format in all cases: functional
[1] = tested on: Mycobacterium tuberculosis; assay: Antimycobacterial activity against Mycobacterium tuberculosis H37Rv ATCC 27294 assessed as inhibition of bacterial growth incubated for 18 to 24 hrs by broth dilution method
Staphylococcus aureus [2] = assay: Antibacterial activity against Staphylococcus aureus ATCC 29213 assessed as inhibition of bacterial growth measured for 18 to 24 hrs by broth dilution method; details: time 18-24 hrs
[3] = tested on: Mycobacterium tuberculosis; assay: Antimycobacterial activity against rifampicin-resisitant Mycobacterium tuberculosis ATCC 35838 assessed as inhibition of bacterial growth incubated for 18 to 24 hrs by broth dilution method; details: time 18-24 hrs
[4] = tested on: Mycobacterium tuberculosis; assay: Antimycobacterial activity against isoniazid-resisitant Mycobacterium tuberculosis ATCC 35822 assessed as inhibition of bacterial growth incubated for 18 to 24 hrs by broth dilution method; details: time 18-24 hrs
[5] = tested on: Mycobacterium tuberculosis; assay: Antimycobacterial activity against ethambutol-resisitant Mycobacterium tuberculosis ATCC 35837 assessed as inhibition of bacterial growth incubated for 18 to 24 hrs by broth dilution method; details: time 18-24 hrs
[6] = tested on: Mycobacterium tuberculosis; assay: Antimycobacterial activity against streptomycin-resisitant Mycobacterium tuberculosis ATCC 35820 assessed as inhibition of bacterial growth incubated for 18 to 24 hrs by broth dilution method; details: time 18-24 hrs
[7] = tested on: Mycobacterium tuberculosis; assay: Antimycobacterial activity against Mycobacterium tuberculosis H37Rv assessed as reduction in bacterial growth
Staphylococcus aureus [8] = assay: Antibacterial activity against methicillin/ceftriaxone/meropenem/vancomycin/teicoplanin resistant Staphylococcus aureus VRS 4 assessed as reduction in bacterial growth incubated for 18 to 24 hrs by broth dilution method; details: time 18-24 hrs
Staphylococcus aureus [9] = assay: Antibacterial activity against methicillin/ceftriaxone/meropenem/vancomycin/teicoplanin resistant Staphylococcus aureus VRS 12 assessed as reduction in bacterial growth incubated for 18 to 24 hrs by broth dilution method; details: time 18-24 hrs
Staphylococcus aureus [10] = assay: Antibacterial activity against methicillin/ceftriaxone/meropenem/gentamycin/vancomycin/teicoplanin resistant Staphylococcus aureus VRS 1 assessed as reduction in bacterial growth incubated for 18 to 24 hrs by broth dilution method; details: time 18-24 hrs

Row | Compound | MIC [1] [µg/mL] | MIC (Staphylococcus aureus [2]) [µg/mL] | further results
1 | COc1ccc(-c2ccn(-c3ccc(NC(=O)Nc4cccc(C(F)(F)F)c4)cc3)n2)cc1OC | 8 (≈ 16.6 µM) | > 64 | –
2 | O=C(Nc1ccc(-n2ccc(-c3ccccc3)n2)cc1)Nc1ccc(Cl)c(Cl)c1 | 64 (≈ 151 µM) | > 64 | –
3 | O=C(Nc1ccc(-n2ccc(-c3ccc(Cl)cc3)n2)cc1)Nc1ccc(F)cc1F | > 64 | > 64 | –
4 | COc1ccc(-c2ccn(-c3ccc(NC(=O)Nc4ccc(Cl)cc4Cl)cc3)n2)cc1OC | 16 (≈ 33.1 µM) | > 64 | –
5 | COc1ccc(-c2ccn(-c3ccc(NC(=O)Nc4ccc(C)c(Cl)c4)cc3)n2)cc1OC | 4 (≈ 8.64 µM) | > 64 | –
6 | COc1ccc(-c2ccn(-c3ccc(NC(=O)Nc4cccc(Cl)c4Cl)cc3)n2)cc1OC | 16 (≈ 33.1 µM) | > 64 | –
7 | COc1ccc(-c2ccn(-c3ccc(NC(=S)Nc4ccc(F)cc4F)cc3)n2)cc1OC | 16 (≈ 34.3 µM) | > 64 | –
8 | O=C(Nc1ccc(-n2ccc(-c3ccc(Cl)cc3Cl)n2)cc1)Nc1ccc(F)cc1F | > 64 | > 64 | –
9 | COc1ccc(-c2ccn(-c3ccc(NC(=S)Nc4cccc(Cl)c4)cc3)n2)cc1OC | 16 (≈ 34.4 µM) | > 64 | –
10 | COc1ccc(-c2ccn(-c3ccc(NC(=S)Nc4cc(C)cc(C)c4)cc3)n2)cc1OC | 8 (≈ 17.4 µM) | > 64 | –
11 | CN[C@@H]1[C@H](O[C@H]2[C@H](O[C@H]3[C@H](O)[C@@H](O)[C@H](N=C(N)N)[C@@H](O)[C@@H]3N=C(N)N)O[C@@H](C)[C@]2(O)C=O)O[C@@H](CO)[C@H](O)[C@H]1O [STREPTOMYCIN] | 1 (≈ 1.72 µM) | – | MIC [3]: 1 µg/mL (≈ 1.72 µM); MIC [4]: 1 µg/mL (≈ 1.72 µM); MIC [5]: 1 µg/mL (≈ 1.72 µM); MIC [6]: > 64 µg/mL
12 | O=C(Nc1ccc(-n2ccc(-c3ccccc3)n2)cc1)Nc1ccc(F)cc1F | > 64 | > 64 | –
13 | COc1ccc(-c2ccn(-c3ccc(NC(=S)NCc4ccccc4)cc3)n2)cc1OC | 8 (≈ 18 µM) | > 64 | –
14 | COc1ccc(-c2nn(-c3ccc(Cl)cc3)cc2Cn2cncn2)cc1 | – | – | MIC [7]: 4.4 µg/mL (≈ 12 µM)
15 | O=C(Nc1ccc(-n2ccc(-c3cccnc3)n2)cc1)Nc1ccc(Cl)c(Cl)c1 | 16 (≈ 37.7 µM) | > 64 | –
16 | COc1ccc(-c2ccn(-c3ccc(NC(=O)Nc4ccc(Cl)c(Cl)c4)cc3)n2)cc1 | 32 (≈ 70.6 µM) | > 64 | –
17 | O=C(Nc1ccc(-n2ccc(-c3ccc(Cl)cc3)n2)cc1)Nc1ccc(Cl)c(Cl)c1 | 8 (≈ 17.5 µM) | > 64 | –
18 | COc1ccc(-c2ccn(-c3ccc(NC(=O)Nc4ccccc4)cc3)n2)cc1OC | 8 (≈ 19.3 µM) | > 64 | –
19 | COc1ccc(-c2ccn(-c3ccc(NC(=S)Nc4ccccc4)cc3)n2)cc1OC | 8 (≈ 18.6 µM) | > 64 | –
20 | COc1ccc(-c2ccn(-c3ccc(NC(=S)Nc4cc(C(F)(F)F)cc(C(F)(F)F)c4)cc3)n2)cc1OC | 16 (≈ 28.2 µM) | 1 (≈ 1.77 µM) | –
21 | COc1ccc(-c2ccn(-c3ccc(NC(=S)Nc4ccc(C(F)(F)F)cc4)cc3)n2)cc1OC | 2 (≈ 4.01 µM) | 2 (≈ 4.01 µM) | –
22 | COc1ccc(-c2ccn(-c3ccc(NC(=O)Nc4ccc(Cl)c(C(F)(F)F)c4)cc3)n2)cc1OC | 4 (≈ 7.74 µM) | 2 (≈ 3.87 µM) | –

Row | Compound | MIC [1] [µg/mL] | MIC (Staphylococcus aureus [2]) [µg/mL] | further results
23 | Cc1ccc(-c2ccn(-c3ccc(NC(=O)NCc4ccccc4)cc3)n2)cc1 | > 64 | > 64 | –
24 | Cc1ccc(-c2ccn(-c3ccc(NC(=O)Nc4ccc(Cl)c(Cl)c4)cc3)n2)cc1 | > 64 | > 64 | –
25 | COc1ccc(-c2ccn(-c3ccc(NC(=O)NS(=O)(=O)c4ccccc4)cc3)n2)cc1OC | 16 (≈ 33.4 µM) | > 64 | –
26 | COc1ccc(-c2ccn(-c3ccc(NC(=S)Nc4ccc(F)cc4)cc3)n2)cc1OC | 2 (≈ 4.46 µM) | > 64 | –
27 | COc1ccc(-c2ccn(-c3ccc(NC(=S)Nc4ccc([N+](=O)[O-])cc4)cc3)n2)cc1OC | 16 (≈ 33.6 µM) | > 64 | –
28 | O=C(Nc1ccc(-n2ccc(-c3ccc4ccccc4c3)n2)cc1)Nc1ccc(F)cc1F | > 64 | > 64 | –
29 | COc1ccc(-c2ccn(-c3ccc(NC(=O)Nc4cccc(Cl)c4)cc3)n2)cc1OC | 16 (≈ 35.6 µM) | 2 (≈ 4.46 µM) | –
30 | COc1ccc(-c2ccn(-c3ccc(NC(=S)Nc4ccc(C#N)cc4)cc3)n2)cc1OC | 32 (≈ 70.2 µM) | > 64 | –
31 | CC[C@@H](CO)NCCN[C@@H](CC)CO [ETHAMBUTOL] | 2 (≈ 9.79 µM) | – | MIC [3]: 2 µg/mL (≈ 9.79 µM); MIC [4]: 4 µg/mL (≈ 19.6 µM); MIC [5]: 32 µg/mL (≈ 157 µM); MIC [6]: 2 µg/mL (≈ 9.79 µM)
32 | COc1cc(-c2ccn(-c3ccc(NC(=O)Nc4ccc(F)cc4F)cc3)n2)cc(OC)c1OC | 8 (≈ 16.7 µM) | > 64 | –
33 | COc1ccc(-c2ccn(-c3ccc(NC(=S)Nc4ccc(Cl)cc4)cc3)n2)cc1OC | 8 (≈ 17.2 µM) | > 64 | –
34 | COc1ccc(-c2ccn(-c3ccc(NC(=S)Nc4cccc5ccccc45)cc3)n2)cc1OC | 16 (≈ 33.3 µM) | > 64 | –
35 | COc1ccc(-c2ccn(-c3ccc(NC(=S)Nc4cccc(Br)c4)cc3)n2)cc1OC | 16 (≈ 31.4 µM) | 64 (≈ 126 µM) | –
36 | COc1ccc(-c2ccn(-c3ccc(NC(=S)Nc4ccc(F)c(Cl)c4)cc3)n2)cc1OC | 16 (≈ 33.1 µM) | > 64 | –
37 | COc1ccc(-c2cn(-c3ccc(NC(=O)NCc4ccccc4)cc3)nn2)cc1OC | 16 (≈ 37.3 µM) | > 64 | –
38 | CN[C@H](CC(C)C)C(=O)N[C@H]1C(=O)N[C@@H](CC(N)=O)C(=O)N[C@H]2C(=O)N[C@H]3C(=O)N[C@H](C(=O)N[C@H](C(=O)O)c4cc(O)cc(O)c4-c4cc3ccc4O)[C@H](O)c3ccc(c(Cl)c3)Oc3cc2cc(c3O[C@@H]2O[C@H](CO)[C@@H](O)[C@H](O)[C@H]2O[C@H]2C[C@](C)(N)[C@H](O)[C@H](C)O2)Oc2ccc(cc2Cl)[C@H]1O [VANCOMYCIN] | – | – | MIC (Staphylococcus aureus [8]): > 64 µg/mL; MIC (Staphylococcus aureus [9]): > 64 µg/mL; MIC (Staphylococcus aureus [10]): > 64 µg/mL
39 | CCCCCCCNC(=S)Nc1ccc(-n2ccc(-c3ccc(OC)c(OC)c3)n2)cc1 | 4 (≈ 8.84 µM) | > 64 | –
40 | COc1ccc(-c2cn(-c3ccc(NC(=O)Nc4ccc(Cl)c(Cl)c4)cc3)nn2)cc1OC | > 64 | 4 (≈ 8.26 µM) | –
41 | COc1ccc(-c2ccn(-c3ccc(NC(=S)Nc4ccc(C)cc4)cc3)n2)cc1OC | 64 (≈ 144 µM) | > 64 | –
42 | O=C(NCc1ccccc1)Nc1ccc(-n2ccc(-c3ccccc3)n2)cc1 | > 64 | > 64 | –
43 | O=C(NCc1ccccc1)Nc1ccc(-n2ccc(-c3cccnc3)n2)cc1 | 8 (≈ 21.7 µM) | > 64 | –
44 | NNC(=O)c1ccncc1 [ISONIAZID] | 0.03 (≈ 0.219 µM) | – | MIC [3]: 0.03 µg/mL (≈ 0.219 µM); MIC [4]: > 64 µg/mL; MIC [5]: 0.03 µg/mL (≈ 0.219 µM); MIC [6]: 0.03 µg/mL (≈ 0.219 µM)

Row | Compound | MIC [1] [µg/mL] | MIC (Staphylococcus aureus [2]) [µg/mL] | further results
45 | CO[C@H]1/C=C/O[C@@]2(C)Oc3c(C)c(O)c4c(O)c(c(/C=N/N5CCN(C)CC5)c(O)c4c3C2=O)NC(=O)/C(C)=C\C=C\[C@H](C)[C@H](O)[C@@H](C)[C@@H](O)[C@@H](C)[C@H](OC(C)=O)[C@@H]1C [RIFAMPIN] | 0.06 (≈ 0.0729 µM) | – | MIC [3]: 64 µg/mL (≈ 77.8 µM); MIC [4]: 0.03 µg/mL (≈ 0.0365 µM); MIC [5]: 0.03 µg/mL (≈ 0.0365 µM); MIC [6]: 0.03 µg/mL (≈ 0.0365 µM)
46 | COc1ccc(-c2ccn(-c3ccc(NC(=O)Nc4cc(Cl)ccc4Cl)cc3)n2)cc1OC | > 64 | > 64 | –
47 | O=C(NCc1ccccc1)Nc1ccc(-n2ccc(-c3ccc(Cl)cc3Cl)n2)cc1 | 64 (≈ 146 µM) | > 64 | –
48 | O=C(NCc1ccccc1)Nc1ccc(-n2ccc(-c3ccc4ccccc4c3)n2)cc1 | 64 (≈ 153 µM) | > 64 | –
49 | COc1ccccc1NC(=O)Nc1ccc(-n2ccc(-c3ccc(OC)c(OC)c3)n2)cc1 | 32 (≈ 72 µM) | > 64 | –
50 | COc1ccc(-c2ccn(-c3ccc(NC(=O)Nc4cccc(F)c4)cc3)n2)cc1OC | 32 (≈ 74 µM) | > 64 | –
51 | Cc1ccc(-c2ccn(-c3ccc(NC(=O)Nc4ccc(F)cc4F)cc3)n2)cc1 | > 64 | > 64 | –
52 | COc1ccc(-c2ccn(-c3ccc(NC(=O)Nc4ccc(F)cc4F)cc3)n2)cc1 | 8 (≈ 19 µM) | > 64 | –
53 | COc1cc(-c2ccn(-c3ccc(NC(=O)Nc4ccc(Cl)c(Cl)c4)cc3)n2)cc(OC)c1OC | > 64 | > 64 | –
54 | O=C(Nc1ccc(-n2ccc(-c3ccc(Cl)cc3Cl)n2)cc1)Nc1ccc(Cl)c(Cl)c1 | > 64 | > 64 | –
55 | COc1ccc(-c2ccn(-c3ccc(NC(=O)NCc4ccccc4)cc3)n2)cc1 | > 64 | > 64 | –
56 | COc1ccc(NC(=S)Nc2ccc(-n3ccc(-c4ccc(OC)c(OC)c4)n3)cc2)c(OC)c1 | 32 (≈ 65.2 µM) | > 64 | –
57 | COc1ccc(-c2ccn(-c3ccc(NC(=S)NC4CCCCC4)cc3)n2)cc1OC | 16 (≈ 36.6 µM) | > 64 | –
58 | O=C(NCc1ccccc1)Nc1ccc(-n2ccc(-c3ccc(Cl)cc3)n2)cc1 | > 64 | > 64 | –
59 | COc1ccc(-c2ccn(-c3ccc(NC(=O)Nc4c(C)cccc4C)cc3)n2)cc1OC | > 64 | > 64 | –
60 | O=C(Nc1ccc(-n2ccc(-c3cccnc3)n2)cc1)Nc1ccc(F)cc1F | 8 (≈ 20.4 µM) | > 64 | –
61 | COc1ccc(NC(=S)Nc2ccc(-n3ccc(-c4ccc(OC)c(OC)c4)n3)cc2)cc1 | 8 (≈ 17.4 µM) | > 64 | –
62 | COc1ccc(-c2cn(-c3ccc(NC(=O)Nc4ccc(F)cc4F)cc3)nn2)cc1OC | 8 (≈ 17.7 µM) | > 64 | –
63 | COc1ccc(-c2ccn(-c3ccc(NC(=O)Nc4ccccc4C)cc3)n2)cc1OC | 16 (≈ 37.3 µM) | > 64 | –
64 | O=C(Nc1ccc(-n2ccc(-c3ccc4ccccc4c3)n2)cc1)Nc1ccc(Cl)c(Cl)c1 | 64 (≈ 135 µM) | > 64 | –
65 | COc1cccc(NC(=S)Nc2ccc(-n3ccc(-c4ccc(OC)c(OC)c4)n3)cc2)c1 | 16 (≈ 34.7 µM) | > 64 | –
